The text below walks through data of ChEMBL document CHEMBL1201862, “PubChem BioAssay data set” (2004).

The structures appear in SMILES notation. Calls of active or inactive are those of the source.

The target of one assay is T1, Cysteine protease ATG4B (Homo sapiens, UniProt Q9Y4P1).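 Further: Fluorescence-based dose-response confirmation assay measuring inhibition of ATG4B activity.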
T1 sequence (Q9Y4P1 whole entry): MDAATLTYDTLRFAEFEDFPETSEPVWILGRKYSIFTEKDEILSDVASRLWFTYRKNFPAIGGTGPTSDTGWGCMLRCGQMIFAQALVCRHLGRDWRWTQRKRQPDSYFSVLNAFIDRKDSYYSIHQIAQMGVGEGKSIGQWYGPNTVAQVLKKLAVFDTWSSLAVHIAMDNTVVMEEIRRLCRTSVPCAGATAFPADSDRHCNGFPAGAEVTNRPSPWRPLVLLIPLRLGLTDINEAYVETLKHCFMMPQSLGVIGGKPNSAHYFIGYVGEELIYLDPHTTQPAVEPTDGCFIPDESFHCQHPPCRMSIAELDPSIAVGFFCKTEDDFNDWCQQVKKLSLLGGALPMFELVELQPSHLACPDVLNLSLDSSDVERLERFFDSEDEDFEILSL
Type of assay: functional.

Another assay has as its target Phospholipase A2 (Homo sapiens, UniProt P04054). The class given is functional.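 Further: confirmatory dose-response counterscreen on phospholipase A2, testing hits that came from an ultra-high-throughput screen for ATG4B inhibitors.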
The target of assay [1] is Dual specificity tyrosine-phosphorylation-regulated kinase 1A (Rattus norvegicus, UniProt Q63470). The class given is biochemical, Homo sapiens.
In assay [2] the target is Cyclin-dependent kinase 5/CDK5 activator 1 (Homo sapiens, UniProt Q00535). Nature of the assay: blockade of human CDK5 activity – biochemical, cherry-picked samples, set 2, dose response (AID 504545).
Chain of Cyclin-dependent kinase 5/CDK5 activator 1 (Q00535 whole entry): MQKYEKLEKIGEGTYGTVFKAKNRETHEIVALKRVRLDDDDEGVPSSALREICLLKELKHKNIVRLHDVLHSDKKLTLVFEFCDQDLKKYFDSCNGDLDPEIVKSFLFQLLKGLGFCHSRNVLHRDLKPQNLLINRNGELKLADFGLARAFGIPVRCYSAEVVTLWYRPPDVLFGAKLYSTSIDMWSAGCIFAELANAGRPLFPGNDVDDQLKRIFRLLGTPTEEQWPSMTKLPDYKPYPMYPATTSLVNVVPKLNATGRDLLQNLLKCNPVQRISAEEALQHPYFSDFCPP
Chain of Cyclin-dependent kinase 5/CDK5 activator 1 (Q15078 whole entry, further chain): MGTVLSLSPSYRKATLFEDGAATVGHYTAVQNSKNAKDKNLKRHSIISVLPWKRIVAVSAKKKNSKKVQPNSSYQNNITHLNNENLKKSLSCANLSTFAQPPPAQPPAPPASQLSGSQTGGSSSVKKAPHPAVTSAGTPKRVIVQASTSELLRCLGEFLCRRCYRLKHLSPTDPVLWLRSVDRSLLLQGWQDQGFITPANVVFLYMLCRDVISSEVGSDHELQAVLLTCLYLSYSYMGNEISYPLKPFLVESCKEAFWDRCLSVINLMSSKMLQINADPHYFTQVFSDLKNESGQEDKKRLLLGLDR
Assay [3] addresses T2, Calpain-2 catalytic subunit (Sus scrofa, UniProt P43367).
T2 sequence (P43367 whole entry): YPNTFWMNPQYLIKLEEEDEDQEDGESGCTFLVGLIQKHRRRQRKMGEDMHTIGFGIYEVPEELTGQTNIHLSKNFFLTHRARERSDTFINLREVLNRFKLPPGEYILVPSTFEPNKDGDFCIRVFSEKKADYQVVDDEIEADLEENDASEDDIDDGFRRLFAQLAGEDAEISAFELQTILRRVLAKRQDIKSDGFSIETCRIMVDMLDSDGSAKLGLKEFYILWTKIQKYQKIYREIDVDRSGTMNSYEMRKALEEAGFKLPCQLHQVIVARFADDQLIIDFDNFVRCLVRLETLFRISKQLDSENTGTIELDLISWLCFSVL
Nature of the assay: m-calpain protease blockers, concentration series – biochemical, fluorogenic peptide substrate, dose response (AID 1420). The class given is functional.

For a further assay, the system named is Escherichia coli. Nature of the assay: microbe, parasite or virus in culture.
The target in a further assay is Mu-type opioid receptor (Homo sapiens, UniProt P35372). The assay is described as follows: Counterscreen for agonists of heterodimerization of the mu 1 (OPRM1) and delta 1 (OPRD1) opioid receptors: Luminescence-based cell-based high throughput dose response assay to identify agonists of OPRM1 homodimerization. Type of assay: functional.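 Further: U2OS cells expressing OPRM1 and beta-arrestin as split beta-galactosidase partners.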
Chain of Mu-type opioid receptor (P35372 whole entry): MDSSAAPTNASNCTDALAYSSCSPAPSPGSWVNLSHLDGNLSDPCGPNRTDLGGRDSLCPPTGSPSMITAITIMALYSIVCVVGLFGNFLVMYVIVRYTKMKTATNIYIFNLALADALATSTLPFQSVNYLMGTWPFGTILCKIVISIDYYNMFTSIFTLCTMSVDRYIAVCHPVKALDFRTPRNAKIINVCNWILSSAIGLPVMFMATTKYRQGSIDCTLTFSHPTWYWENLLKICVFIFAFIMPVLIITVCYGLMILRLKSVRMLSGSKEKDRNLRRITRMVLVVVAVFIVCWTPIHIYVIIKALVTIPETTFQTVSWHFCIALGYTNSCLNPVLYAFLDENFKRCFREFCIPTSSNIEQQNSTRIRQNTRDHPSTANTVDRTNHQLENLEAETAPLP
The target of assay [4] is Induced myeloid leukemia cell differentiation protein Mcl-1 (Homo sapiens, UniProt Q07820). The class given is functional.
For assay [5], the target named is Delta-type opioid receptor (Homo sapiens, UniProt P41143). Nature of the assay: Counterscreen for agonists of heterodimerization of the mu 1 (OPRM1) and delta 1 (OPRD1) opioid receptors: Luminescence-based cell-based high throughput dose response assay to identify agonists of OPRD1 homodimerization. [Related pubchem assays (depositor defined):AID504326, AID504355, AID504692, AID504904, AID504905]. The class given is functional.
Chain of Delta-type opioid receptor (P41143 whole entry): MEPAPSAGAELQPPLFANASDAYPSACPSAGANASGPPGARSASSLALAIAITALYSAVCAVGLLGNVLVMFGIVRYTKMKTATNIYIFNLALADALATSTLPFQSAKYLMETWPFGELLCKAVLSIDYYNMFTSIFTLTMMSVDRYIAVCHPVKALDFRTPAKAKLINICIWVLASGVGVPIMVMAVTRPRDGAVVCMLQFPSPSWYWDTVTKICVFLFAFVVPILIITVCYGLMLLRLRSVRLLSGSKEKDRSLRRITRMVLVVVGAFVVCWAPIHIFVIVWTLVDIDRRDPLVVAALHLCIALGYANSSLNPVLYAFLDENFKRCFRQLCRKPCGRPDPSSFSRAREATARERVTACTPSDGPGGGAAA

The target of assay [6] is T3, Carboxy-terminal domain RNA polymerase II polypeptide A small phosphatase 1 (Homo sapiens, UniProt Q9GZU7).
T3 sequence (Q9GZU7 whole entry): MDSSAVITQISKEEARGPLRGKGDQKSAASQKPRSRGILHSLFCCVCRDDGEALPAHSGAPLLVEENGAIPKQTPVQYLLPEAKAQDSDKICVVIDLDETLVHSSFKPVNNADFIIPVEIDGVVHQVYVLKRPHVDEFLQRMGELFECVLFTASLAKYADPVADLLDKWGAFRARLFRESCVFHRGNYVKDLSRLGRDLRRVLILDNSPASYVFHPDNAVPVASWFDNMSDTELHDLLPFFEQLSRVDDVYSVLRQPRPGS
The assay is described as follows: CTDSP1 inhibitors, concentration-response, biochemical, absorbance readout, ultra-high-throughput screen actives (AID 540297). The class given is functional.

In assay [7] the target is 5-hydroxytryptamine receptor 5A (Homo sapiens, UniProt P47898). The assay is described as follows: Counterscreen for agonists of OPRM1-OPRD1 heterodimerization: luminescence-based cell-based high throughput dose response assay to identify agonists of 5-hydroxytryptamine (serotonin) 5A receptor (HTR5A). [Related pubchem assays (depositor defined):AID504326, AID504355, AID504692, AID504904, AID504905]. The class given is functional.
Chain of 5-hydroxytryptamine receptor 5A (P47898 whole entry): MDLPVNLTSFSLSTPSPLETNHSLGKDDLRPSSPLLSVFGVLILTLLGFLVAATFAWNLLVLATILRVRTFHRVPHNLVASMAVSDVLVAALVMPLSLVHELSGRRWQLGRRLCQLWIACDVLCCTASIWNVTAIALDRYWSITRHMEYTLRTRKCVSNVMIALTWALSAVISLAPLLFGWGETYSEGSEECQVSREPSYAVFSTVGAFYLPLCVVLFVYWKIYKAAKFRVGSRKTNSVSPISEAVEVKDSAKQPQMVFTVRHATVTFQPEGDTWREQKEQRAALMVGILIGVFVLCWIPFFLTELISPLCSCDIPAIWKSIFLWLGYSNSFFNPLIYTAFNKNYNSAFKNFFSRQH

Assay [8] has as its target Heat shock protein HSP 90-alpha (Homo sapiens, UniProt P07900). The class given is functional, organism-based.
In assay [9] the target is T4, Type-1 angiotensin II receptor (Homo sapiens, UniProt P30556).
T4 sequence (P30556 whole entry): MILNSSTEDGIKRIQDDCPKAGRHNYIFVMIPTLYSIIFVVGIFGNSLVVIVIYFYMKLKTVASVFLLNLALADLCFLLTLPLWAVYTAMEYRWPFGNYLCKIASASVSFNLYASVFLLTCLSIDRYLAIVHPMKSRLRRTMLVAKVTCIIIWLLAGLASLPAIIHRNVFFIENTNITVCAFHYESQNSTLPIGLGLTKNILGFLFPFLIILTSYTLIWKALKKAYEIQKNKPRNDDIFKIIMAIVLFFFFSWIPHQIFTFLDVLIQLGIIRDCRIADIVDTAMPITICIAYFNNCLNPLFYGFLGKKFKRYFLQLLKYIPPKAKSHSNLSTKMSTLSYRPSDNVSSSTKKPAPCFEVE
Nature of the assay: antagonism of angiotensin II type 1 receptor – cell-based, uHTS hits, selectivity assay for APJ receptor antagonist project, dose response (AID 463214).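 Further: antagonist potency against angiotensin II stimulated AT1 response.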 The class given is functional.

Another assay addresses Beta-galactosidase (Escherichia coli, UniProt Q8VNN2). Nature of the assay: PubChem AID 485352. The class given is functional.
Assay [10] in a line: Luminescence Cell-Based Dose Retest to Confirm Inhibitors of Cancer Stem Cells. [Related pubchem assays (depositor defined):AID2717, AID2721]. Type of assay: functional. As to conditions: Homo sapiens.
Assay [11] in a line: viability loss of HMLE_sh_eGFP cells – cell-based, luminescence, counter-screen for HMLE_sh_ECad selective toxicity project, dose response (AID 463074).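 Further: HMLE human mammary epithelial cells expressing control shRNA against eGFP.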 Type of assay: functional, Homo sapiens.
The target of assay [12] is Intestinal-type alkaline phosphatase (Mus musculus, UniProt P24822). Nature of the assay: PubChem AID 488785. Type of assay: functional.
Chain of Intestinal-type alkaline phosphatase (Mus musculus, UniProt P24822) (P24822 whole entry): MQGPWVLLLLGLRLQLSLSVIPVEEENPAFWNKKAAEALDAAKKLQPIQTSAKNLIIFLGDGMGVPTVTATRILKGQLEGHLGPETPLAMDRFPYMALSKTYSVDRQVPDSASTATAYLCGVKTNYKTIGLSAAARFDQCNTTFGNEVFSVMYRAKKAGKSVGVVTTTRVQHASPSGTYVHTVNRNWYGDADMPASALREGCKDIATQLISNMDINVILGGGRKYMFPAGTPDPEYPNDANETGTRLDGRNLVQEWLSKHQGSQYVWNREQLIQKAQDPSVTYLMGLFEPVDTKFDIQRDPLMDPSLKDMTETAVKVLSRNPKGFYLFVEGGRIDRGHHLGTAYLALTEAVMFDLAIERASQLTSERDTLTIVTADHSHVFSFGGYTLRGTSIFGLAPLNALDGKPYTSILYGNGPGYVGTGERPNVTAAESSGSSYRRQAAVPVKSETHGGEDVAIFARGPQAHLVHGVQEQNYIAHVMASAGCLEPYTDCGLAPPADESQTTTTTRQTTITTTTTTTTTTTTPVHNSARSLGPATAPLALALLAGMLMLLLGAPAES
For assay [13], the target named is T5, Intestinal-type alkaline phosphatase (Homo sapiens, UniProt P09923). The assay is described as follows: inhibition of human intestinal alkaline phosphatase – biochemical, dose response (AID 488876). Type of assay: functional.
T5 sequence (P09923 whole entry): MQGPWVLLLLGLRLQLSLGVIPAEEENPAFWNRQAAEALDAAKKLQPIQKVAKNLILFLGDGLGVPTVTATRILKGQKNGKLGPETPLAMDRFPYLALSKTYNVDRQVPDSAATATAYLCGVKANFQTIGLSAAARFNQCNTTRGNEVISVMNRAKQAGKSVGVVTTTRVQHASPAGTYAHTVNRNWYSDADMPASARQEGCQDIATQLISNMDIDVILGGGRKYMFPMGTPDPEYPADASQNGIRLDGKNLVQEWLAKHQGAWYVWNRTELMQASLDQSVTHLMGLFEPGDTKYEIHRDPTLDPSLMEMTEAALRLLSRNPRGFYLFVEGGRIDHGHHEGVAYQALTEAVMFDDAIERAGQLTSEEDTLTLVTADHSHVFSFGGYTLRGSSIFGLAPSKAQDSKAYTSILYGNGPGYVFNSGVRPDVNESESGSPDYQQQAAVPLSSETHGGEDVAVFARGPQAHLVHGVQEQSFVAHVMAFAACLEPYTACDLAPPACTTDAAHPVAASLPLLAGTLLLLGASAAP
Assay [14] addresses T6, Alkaline phosphatase, tissue-nonspecific isozyme (Homo sapiens, UniProt P05186).
T6 sequence (P05186 whole entry): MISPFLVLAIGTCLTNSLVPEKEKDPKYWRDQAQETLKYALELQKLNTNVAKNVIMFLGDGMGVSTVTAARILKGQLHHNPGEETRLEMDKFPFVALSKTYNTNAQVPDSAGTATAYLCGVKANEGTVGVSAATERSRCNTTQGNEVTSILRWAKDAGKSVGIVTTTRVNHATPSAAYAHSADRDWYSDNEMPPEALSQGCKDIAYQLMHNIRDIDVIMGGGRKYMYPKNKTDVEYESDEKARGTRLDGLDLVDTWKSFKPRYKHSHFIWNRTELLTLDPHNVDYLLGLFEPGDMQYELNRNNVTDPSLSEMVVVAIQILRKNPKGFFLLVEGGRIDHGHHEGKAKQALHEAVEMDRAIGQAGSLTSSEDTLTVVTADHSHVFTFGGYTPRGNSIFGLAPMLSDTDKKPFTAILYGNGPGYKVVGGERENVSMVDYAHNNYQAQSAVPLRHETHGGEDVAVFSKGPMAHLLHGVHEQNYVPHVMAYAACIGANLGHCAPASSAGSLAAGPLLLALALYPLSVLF
Nature of the assay: TNAP enzyme inhibition by screening hits, dose response, selectivity assay for mouse IAP inhibitor project, biochemical, human TNAP, uHTS hits (AID 488906). The class given is functional.

Assay [15] concerns HEK293. The assay is described as follows: cells. The settings on record: Homo sapiens.
Assay [16] has as its system HEK293. The assay is described as follows: cells. The settings on record: Homo sapiens. This is another data set of the same source.
Assay [17] in a line: viability of uninfected HEp-2 cells – cell-based, HTS, cytotoxicity control for RSV inhibitor project, dose response (AID 2410). The class given is functional. The settings on record: human respiratory syncytial virus.
Assay [18] has as its target T5, Intestinal-type alkaline phosphatase. Nature of the assay: activation of human intestinal alkaline phosphatase – biochemical, dose response (AID 488873). The class given is functional.
For another assay, the target named is Large T antigen (Simian virus 40, UniProt P03070). Type of assay: functional, Betapolyomavirus macacae.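 Further: Confirmatory-stage PubChem screen for compounds that inhibit SV40 T antigen.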
Chain of Large T antigen (P03070 whole entry): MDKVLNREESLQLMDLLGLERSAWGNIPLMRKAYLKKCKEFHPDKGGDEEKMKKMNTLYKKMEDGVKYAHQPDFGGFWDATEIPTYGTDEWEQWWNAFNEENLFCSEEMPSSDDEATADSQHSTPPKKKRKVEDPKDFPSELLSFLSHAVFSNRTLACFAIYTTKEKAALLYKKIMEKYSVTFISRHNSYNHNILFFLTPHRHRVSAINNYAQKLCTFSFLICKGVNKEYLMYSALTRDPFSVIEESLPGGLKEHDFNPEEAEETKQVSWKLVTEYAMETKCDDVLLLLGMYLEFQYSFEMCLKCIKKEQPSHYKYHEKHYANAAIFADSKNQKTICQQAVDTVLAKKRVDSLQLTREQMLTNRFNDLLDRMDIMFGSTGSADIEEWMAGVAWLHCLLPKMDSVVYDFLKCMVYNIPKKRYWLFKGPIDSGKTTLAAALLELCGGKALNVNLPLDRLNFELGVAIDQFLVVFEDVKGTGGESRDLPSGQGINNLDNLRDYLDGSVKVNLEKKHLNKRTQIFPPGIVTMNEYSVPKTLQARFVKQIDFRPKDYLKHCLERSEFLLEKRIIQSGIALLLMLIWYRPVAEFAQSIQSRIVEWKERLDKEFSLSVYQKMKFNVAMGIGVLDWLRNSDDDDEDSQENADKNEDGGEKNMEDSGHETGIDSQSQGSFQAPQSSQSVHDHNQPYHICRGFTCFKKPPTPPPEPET

Chain of Beta-galactosidase (Q8VNN2 whole entry): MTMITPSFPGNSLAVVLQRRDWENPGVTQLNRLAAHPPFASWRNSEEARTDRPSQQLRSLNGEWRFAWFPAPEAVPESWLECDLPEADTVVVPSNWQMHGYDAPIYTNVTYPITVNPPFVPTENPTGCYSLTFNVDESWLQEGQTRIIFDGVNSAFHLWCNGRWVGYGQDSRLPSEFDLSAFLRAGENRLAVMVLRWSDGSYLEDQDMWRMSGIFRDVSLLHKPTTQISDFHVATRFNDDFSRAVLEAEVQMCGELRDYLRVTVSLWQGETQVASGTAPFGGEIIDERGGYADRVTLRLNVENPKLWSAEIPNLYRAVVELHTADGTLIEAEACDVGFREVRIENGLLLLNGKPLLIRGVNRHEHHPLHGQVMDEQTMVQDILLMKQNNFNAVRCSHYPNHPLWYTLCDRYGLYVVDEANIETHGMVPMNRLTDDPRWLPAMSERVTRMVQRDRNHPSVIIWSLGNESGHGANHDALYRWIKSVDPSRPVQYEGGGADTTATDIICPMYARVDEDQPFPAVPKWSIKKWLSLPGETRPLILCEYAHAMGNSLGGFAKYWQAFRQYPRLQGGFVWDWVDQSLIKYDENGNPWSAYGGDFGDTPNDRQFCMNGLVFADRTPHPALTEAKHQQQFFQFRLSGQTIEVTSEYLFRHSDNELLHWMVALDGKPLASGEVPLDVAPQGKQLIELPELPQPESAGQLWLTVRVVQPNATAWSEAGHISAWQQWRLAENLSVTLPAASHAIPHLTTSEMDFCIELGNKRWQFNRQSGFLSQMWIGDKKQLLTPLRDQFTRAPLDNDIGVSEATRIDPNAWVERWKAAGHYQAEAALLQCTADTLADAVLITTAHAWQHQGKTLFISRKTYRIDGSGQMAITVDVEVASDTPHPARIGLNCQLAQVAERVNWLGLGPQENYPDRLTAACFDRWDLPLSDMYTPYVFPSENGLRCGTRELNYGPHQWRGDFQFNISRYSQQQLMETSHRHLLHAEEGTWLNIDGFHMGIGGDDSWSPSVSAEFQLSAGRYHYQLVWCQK
Chain of Phospholipase A2 (P04054 whole entry): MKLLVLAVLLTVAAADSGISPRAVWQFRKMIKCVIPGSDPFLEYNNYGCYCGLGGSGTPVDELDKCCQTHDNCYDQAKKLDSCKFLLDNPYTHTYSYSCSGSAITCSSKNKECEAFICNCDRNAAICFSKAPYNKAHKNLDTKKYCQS

With `N#Cc1c(NC(=O)C2CC(c3ccccc3Cl)=NO2)sc2c1CCC2` (stereo not given), the IC50 at Cysteine protease ATG4B was 4.36 µM (active); at Phospholipase A2 it was 3.48 µM (active).
In the case of `COc1ccc2nc3c(cc2c1)c(NC(=O)c1cccs1)nn3CC(C)C`, the AC50 was 0.43 µM (active) in assay [1] and 4.21 µM (active) in assay [2].
In the case of `CCOc1ccc(C2=CS/C(=C(\C#N)c3nnc4n3CCCCC4)N2CC)cc1`, the IC50 on Cysteine protease ATG4B is 13 µM (active); on Phospholipase A2 it was 8.21 µM (active).
For the molecule `CCCN(Cc1ccccc1)C(S)=Nc1ccc(SC(F)F)cc1`, the IC50 in assay [3] is 18.1 µM (not active). For the same molecule, in the assay with Escherichia coli, the AC50 was 41.9 µM (active).
Take `O=C(Nc1cccc(-c2nn[nH]n2)c1)c1ccc(Cl)s1`: in [1], the AC50 is 1.44 µM (active).
`COc1cccc(C(=O)Nc2ccc3c(c2)C(=O)c2ccccc2C3=O)c1`: the EC50 (at Mu-type opioid receptor; in [5]; in assay [7]) was > 92.5 µM (inactive) in each case. For the same molecule, the IC50 was 1.82 µM (active) in assay [4] and 6.16 µM (active) in assay [6].
Consider `O=C1OCC(CO)(CO)N=C1NNc1ccc(Cl)c(Cl)c1`, for which the AC50 in [8] is 2.31 µM (active). For the same molecule, the IC50 in assay [9] is 16.6 µM (active). Moreover, on Beta-galactosidase, the EC50 was > 40 µM (inactive).
Consider `COc1cc(/C=C2\SC(=S)N(N3CCOCC3)C2=O)ccc1O`, for which the IC50 in assay [9] was > 40 µM (not active). Besides, on Beta-galactosidase, the EC50 is > 40 µM (inactive).
With `COc1ccc(NC(=O)/C(C#N)=C\C=C\c2ccco2)cc1`, the values for the AC50 in assay [10] and in [11] were 1.36 µM (active) and 23.1 µM (active), respectively.
With `CCN(c1ccccc1)S(=O)(=O)c1ccc2[nH]c(=O)[nH]c2c1`, the IC50 in assay [12] was 3.89 µM (active); in assay [13] it was 33.8 µM (active); in assay [14], 24.9 µM (active).
With `Cc1ccc(C(=O)COC(=O)c2cnccn2)cc1[N+](=O)[O-]`, in assay [9], the IC50 was 38.5 µM (not active). The EC50 at Beta-galactosidase was > 40 µM (inactive).
Regarding `CC[C@@]12C(=O)N(c3cccc(Br)c3)C(=O)N1[C@H](c1ccc(Cl)cc1)[C@@H]1C(=O)N(C3CCCCC3)C(=O)[C@@H]12`, the EC50 with HEK293 [15] and in the assay with HEK293 [16] was > 59.6 µM (inactive) throughout. In addition, the cytotoxic concentration (CC50) in [17] is > 50 µM (active).
As for `COC(=O)C1=CO[C@@H](C)[C@@H]2CN(CCc3c[nH]c4ccccc34)CC[C@H]12`, the EC50 (at Mu-type opioid receptor; in [5]; in assay [7]) was > 92.4 µM (inactive) in each case.
For `Fc1ccc(N/N=C/c2ccncc2)c(F)c1`, the values for the AC50 in assay [10] and in assay [11] were 43.7 µM (active) and 102 µM (active), respectively.
`O=c1oc2cc(O)ccc2s1` [TIOXOLONE]: the IC50 in assay [12] was 2.59 µM (active); on Large T antigen it was 19 µM (active); in [14], > 100 µM (inactive). Also, the figures for the EC50 (in [18]; in the assay on HEK293 [15]; in the assay with HEK293 [16]) were 8.33 µM (active), > 59.6 µM (inactive) and > 59.6 µM (inactive), respectively.
